Results as given in paper PMC13172357 (Nature Communications, 2026).

Columns and labels:
[1] = tested on: Ma-Mel-47 USP7 K.O. cells; experiment: Medium color switch (images), Ma-Mel-47 USP7 K.O. cells; format: cell-based, human; settings: Ma-Mel-47 USP7-KO, 72 h, 5 µM NK192, 10 µM FT671, 1 µM NK266
Panc89 cells = experiment: Confluence measurement (cell growth), Panc89; format: cell-based, human; settings: Panc89, 1-10 µM, 72 h, 25 mM or 5 mM D-glucose
[2] = target: T1, human USP7 full length protein (Homo sapiens, UniProt Q93009); experiment: USP7 inhibition assay (Ubiquitin-Rhodamine110Gly cleavage); format: biochemical; settings: Ub-RhoG cleavage, read-out: IC50 (half-maximal inhibition)
T1 construct: human USP7 full length protein
T1 sequence (Q93009 whole entry): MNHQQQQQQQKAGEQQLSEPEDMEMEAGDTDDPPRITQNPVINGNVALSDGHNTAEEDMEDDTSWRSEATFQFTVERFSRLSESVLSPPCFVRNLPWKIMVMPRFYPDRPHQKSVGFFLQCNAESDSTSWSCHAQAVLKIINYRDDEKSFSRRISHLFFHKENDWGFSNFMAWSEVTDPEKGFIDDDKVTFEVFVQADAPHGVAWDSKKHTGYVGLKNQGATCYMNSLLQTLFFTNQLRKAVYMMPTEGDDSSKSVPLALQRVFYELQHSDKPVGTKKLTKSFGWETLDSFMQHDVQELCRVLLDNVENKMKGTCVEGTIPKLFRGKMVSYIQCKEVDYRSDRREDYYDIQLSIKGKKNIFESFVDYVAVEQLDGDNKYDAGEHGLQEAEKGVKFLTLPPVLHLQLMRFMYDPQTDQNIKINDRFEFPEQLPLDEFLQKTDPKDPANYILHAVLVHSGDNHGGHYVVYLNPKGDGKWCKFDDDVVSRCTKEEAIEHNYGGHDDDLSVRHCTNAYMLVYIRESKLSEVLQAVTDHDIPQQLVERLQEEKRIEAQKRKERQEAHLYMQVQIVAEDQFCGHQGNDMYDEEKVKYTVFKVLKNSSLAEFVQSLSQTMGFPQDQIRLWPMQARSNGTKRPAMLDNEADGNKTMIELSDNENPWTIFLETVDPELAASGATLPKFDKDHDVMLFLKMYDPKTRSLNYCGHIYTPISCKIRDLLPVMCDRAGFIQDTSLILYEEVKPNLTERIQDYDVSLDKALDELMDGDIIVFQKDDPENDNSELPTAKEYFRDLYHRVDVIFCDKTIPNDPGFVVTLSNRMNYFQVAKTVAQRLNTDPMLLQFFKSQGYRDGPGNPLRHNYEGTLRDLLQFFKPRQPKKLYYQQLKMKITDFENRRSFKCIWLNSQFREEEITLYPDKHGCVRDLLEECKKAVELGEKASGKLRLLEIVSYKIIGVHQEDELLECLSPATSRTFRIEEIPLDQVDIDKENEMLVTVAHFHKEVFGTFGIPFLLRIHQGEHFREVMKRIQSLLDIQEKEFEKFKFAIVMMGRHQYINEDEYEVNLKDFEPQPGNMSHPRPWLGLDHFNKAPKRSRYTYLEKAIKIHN
Procedure: USP7 inhibitors in DMSO were diluted in UbR buffer (40 mM Tris-HCl pH 8, 150 mM NaCl, 1 mM TCEP, 0.1 mg/mL BSA, 0.01% Tween20) to a concentration of 80 μM (4x). This stock was then further diluted in an 11-times serial dilution in UbR buffer containing 4% DMSO (4x). To this was added the same volume of human USP7 full length protein[59] […] The assay was initiated upon addition of 10 μL per well of Ubiquitin-Rhodamine110Gly (Ub-RhoG) (100 nM in UbR buffer, 2x). […] Normalization was carried out using samples featuring either no inhibitor or no enzyme as respective controls. […] Slopes of fluorescence over time curves were determined with Microsoft Excel through linear regression using the first 15 min of each measurement.

USP7 [3] = target: T2, USP7 (Homo sapiens, UniProt Q93009); experiment: PROTAC rescue experiments, Western blot, Panc89 and Ma-Mel-47 cells; format: cell-based; settings: 2 h pretreatment (MLN4924 500 nM, CFZ 250 nM, NK249 10 µM), then 1 µM NK250 or NK266 for 20 h
T2 construct: allowed the analysis of endogenous USP7 degradation in both cell lines; endogenous in cells; host or cells: Panc89 (PDAC) and Ma-Mel-47 (melanoma) cells
T2 sequence (Q93009 whole entry): as above
Procedure: Cells were treated with proteasome inhibitor Carfilzomib (CFZ, 250 nM), NEDDylation Inhibitor MLN4924 (500 nM) or VHL inhibitor NK249 (10 µM). After 2 h, PROTAC (1 µM) was added. Cells were analyzed after 20 h.

USP7 [4] = target: T2, USP7; experiment: USP7 degradation, Western blot densitometry, Ma-Mel-47 cells; format: cell-based; settings: Ma-Mel-47, 5 µM, 24 h, Western blot
Procedure: (§1) The melanoma cell line Ma-Mel-47 (established previously[57] from metastatic lesions from patient tumor tissues after written informed consent) and the PDAC cell line Panc89 (RRID: CVCL_4056, also referenced as T3M-4[58]) were cultured in a humidified incubator with 5% CO2 at 37 °C in RPMI1640 (Ma-Mel-47) / DMEM (Panc89) medium containing 10% (v/v) fetal calf serum (FCS) and penicillin/streptomycin (all Gibco, Thermo Fisher Scientific). Studies on human material were approved by the institutional review board. […] Testing for mycoplasma was performed by PCR monthly. To confirm cell identity, STR analysis was performed by the Microsynth Seqlab GmbH.
(§2) To prepare samples for Western blot analysis, cells were seeded in 6-well dishes the day before treatment to adhere at 70–80% confluency.
(§3) Cell pellets of all PDAC samples were lysed via adding a buffer containing 150 mM NaCl, 50 mM Tris/HCl (pH 7.4), 1% Triton X-100, 10 mM EDTA, 1 mM PMSF, 10 mM orthovanadate, and 1% aprotinin, incubating on ice for 1 h with vortexing every 15 minutes. Lysates were cleared of cell debris by centrifugation at 10,000 ×g at 4 °C for 10 min. […] Lysates were then clarified of cell debris by centrifugation at 13,000 ×g at 4 °C for 15 min. Thereafter, the total protein concentrations were either determined immediately or the protein extracts were stored at −20 or −80 °C. Pellets for samples shown in Fig. 6 and Supplementary Fig. 6 were lysed in 120 µL lysis buffer (50 mM Tris pH 8.0, 150 mM NaCl, 1% (v/v) IGEPAL, 0.5% (w/v) Na-deoxycholate, 0.1% (w/v) SDS) supplemented with 1x EDTA-free inhibitor protease cocktail (cOmplete, Roche) for 15 min at 4 °C. 0.2 µL Turbonuclease (Sigma Aldrich) and 5 mM MgCl2 were then added and lysates were incubated for 15 min at 4 °C. Cell debris was separated by centrifugation at 20,817 ×g for 15 min at 4 °C.
(§4) Protein concentrations of cell lysates were measured using the Pierce BCA Protein Assay (Thermo Fisher Scientific) or the Quick Start Bradford Protein Assay (Bio-Rad), following the manufacturers’ protocols. Measurements were recorded on Tecan Spark or Tecan Infinite M200 plate readers. Lysates were kept on ice throughout the entire process.
(§5) To separate proteins via SDS-PAGE, 10-20 µg of protein in lysis buffer was diluted with SDS-PAGE loading buffer (for most blots containing DTT or 2-mercaptoethanol) and denatured at 95 °C for 5 min. Protein separation was conducted at 95–110 V using the Mini-PROTEAN electrophoresis system (Bio-Rad). Proteins were then transferred to PVDF or nitrocellulose membranes using the Trans-Blot Turbo system (Bio-Rad) with the Trans-Blot Turbo RTA Kit for PVDF membranes. Prior to transfer, membranes were activated by soaking in 100% ethanol (for PVDF) or distilled water (for nitrocellulose) and proteins were transferred using the Mixed MW or the standard (1.0 A, 25 V, 30 min) protocol.
(§6) After transfer, membranes were blocked in 5% (w/v) milk/TBS-T for 1 h and then washed three times for 10 min with TBS-T. They were incubated overnight at 4 °C with the primary antibody in 5% (w/v) milk/TBS-T or 1% (w/v) BSA/TBS-T. Membranes were then washed three times for 10 min with TBS-T and incubated with horseradish peroxidase (HRP)-conjugated secondary antibodies in a solution of 5% (w/v) BSA/TBS-T or 1% (w/v) milk/TBS-T for 1 h at room temperature. PBS-T was used for blots shown in Fig. 6 and Supplementary Fig. 6.
(§7) Membranes were incubated with Clarity Western ECL substrate (Bio-Rad) for PDAC samples or Pierce ECL Western Blotting-Substrate (Thermo Fisher Scientific) for melanoma. Chemiluminescent signals were detected with a ChemiDoc Imaging System (Bio-Rad) for PDAC samples or with a ECL Chemostar Imager (Intas Science Imaging) for melanoma samples.
(§8) Densitometric quantification of band intensities for Fig. 2c, d was performed using the ImageJ software.

USP7 [5] = target: T2, USP7; experiment: USP7 degradation, Western blot densitometry, Panc89 cells; format: cell-based; settings: Panc89, 5 µM, 24 h, Western blot
Procedure: as §1, §2, §3, §4, §5, §6, §7, §8

[6] = target: T3, NanoLuc-USP7 and HaloTag-VHL (Homo sapiens, UniProt P40337+Q93009); experiment: Cellular ternary complex formation assay (NanoBRET), HEK293T cells; format: cell-based; settings: for Ternary complex induction (in words): NanoBRET
T3 construct: expressed in transfected cells; host or cells: HEK293T, transient transfection (FuGENE HD)
T3 sequence (Q93009 whole entry): as above
T3 sequence (P40337 whole entry): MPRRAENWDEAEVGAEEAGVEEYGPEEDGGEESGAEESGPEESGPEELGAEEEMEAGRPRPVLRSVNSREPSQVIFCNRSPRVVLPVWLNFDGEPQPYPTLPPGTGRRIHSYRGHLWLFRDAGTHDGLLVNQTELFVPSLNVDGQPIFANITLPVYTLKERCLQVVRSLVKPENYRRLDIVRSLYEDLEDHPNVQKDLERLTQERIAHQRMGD
T3 sequence (Q15370 whole entry partner): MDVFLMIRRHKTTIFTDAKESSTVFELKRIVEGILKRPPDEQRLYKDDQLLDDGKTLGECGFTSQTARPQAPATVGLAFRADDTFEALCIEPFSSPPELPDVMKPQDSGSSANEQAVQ
T3 sequence (Q15369 whole entry partner): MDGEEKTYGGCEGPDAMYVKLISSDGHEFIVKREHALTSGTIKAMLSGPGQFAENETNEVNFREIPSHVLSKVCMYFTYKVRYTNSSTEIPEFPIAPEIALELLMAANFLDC
Procedure: The assay was performed as described step-by-step elsewhere. USP7 (NanoLuc-USP7) and VHL (HaloTag-VHL) were cloned in frame with N-terminal NanoLuc or HaloTag, respectively. For transfections, HEK293T cells were diluted in Opti-MEM medium without phenol red (Life Technologies) to 4×10^5 cells/mL and 9 µL were pipetted into each well of a white 384-well plate (Greiner 781207). 1 mL transfection mix was prepared containing 30 µL FuGENE HD (Promega, E2312) and 8 µL of each plasmid, incubated 20 min at RT and 1 µL were pipetted into each well leading to the total assay volume of 10 µL. […] 2 h prior to BRET measurements, the compounds were titrated to the cells using an Echo acoustic dispenser and the cells were incubated further at 37 °C and 5% CO2 to allow complex formation. NanoBRET Nano-Glo substrate and Extracellular NanoLuc Inhibitor (Promega, N2540) were then added as per the manufacturer’s protocol, and filtered luminescence was recorded on a PHERAstar FSX plate reader (BMG Labtech) equipped with a luminescence filter pair (donor: 450 nm BP filter; acceptor: 610 nm LP filter). Data were analyzed using GraphPad Prism 10 software.

HiBiT-USP7 = HiBiT-USP7 (Homo sapiens, UniProt Q93009); experiment: HiBiT USP7 degradation assay, MV4-11 cells; format: cell-based; settings: MV4-11 HiBiT-USP7, 6 h and 24 h
Sequence of HiBiT-USP7 (Q93009 whole entry, the tested form may be a part): as the sequence (Q93009 whole entry) above
Procedure: HiBiT-USP7 construct was cloned by extraction of USP7 fragment from plasmid pQHA-USP7 WT puroR (Addgene #46753) using appropriate restriction sites. The USP7 fragment was then ligated into the pRRL-PGK-HiBiT entry vector to generate the plasmid.
Lentiviral infection was used to generate stable a MV4-11 HiBiT cell line. Lentivirus was produced using plasmids psPAX2, pMD2.G, and HiBiT-USP7 plasmid in HEK293 cells. MV4-11 cells were infected with filtered virus supernatant and selected after 48 h of infection for the generation of the stable MV4-11^HiBiT-USP7 cell line.
The assay was performed as described previously. Briefly, MV4-11^HiBiT-USP7 cells were seeded and treated with compounds for the indicated time. Nano-Glo HiBiT Lytic Detection System (Promega) was used for the assay and luminescence was measured on a Tecan Spark microplate reader (Tecan). DC50 values were calculated using the sigmoidal dose-response (four parameters) equation in GraphPad Prism and are given as the concentration where 50% of the total signal was remaining. Dmax values are given as the maximum degradation observed at any concentration.

O=C(C[C@@H](C(F)F)n1ccc(F)n1)N1CCC(O)(Cn2cnc3c(cnn3-c3ccc(F)cc3)c2=O)CC1 [FT671, reference compound]
Change of media color (in words) [1]: the same change of media color | Cell growth (in words) (Panc89 cells): not affected | IC50 [2]: 13 nM

CCc1c(-c2ccc3[nH]ncc3c2)cnc(N)c1-c1ccc(O)cc1 [GNE-6640]
IC50 [2]: 545 nM

NS(=O)(=O)OC[C@@H]1C[C@@H](n2ccc3c(N[C@H]4CCc5ccccc54)ncnc32)C[C@@H]1O [MLN4924, Pevonedistat]
Rescue of PROTAC-mediated USP7 degradation (in words) (USP7 [3]): rescued PROTAC-mediated degradation of USP7

Cc1ncsc1-c1ccc(CNC(=O)C2CC(O)CN2C(=O)C(NC(=O)C2CCC(C(=O)N3CCN(c4ccc(-n5ncc6c(=O)n(CC7(O)CCN(C(=O)CC(C)c8ccccc8)CC7)cnc65)cc4)CC3)CC2)C(C)(C)C)cc1 (stereo not shown) [NK225]
USP7 degradation (in words) (USP7 [4]): robust degradation of USP7 | USP7 degradation (in words) (USP7 [5]): effectively degraded USP7 | EC50 ([6]; compound 2 h prior BRET measurement, read-out: EC50 (half-maximal ternary complex formation concentration)): 144 nM | HiBiT-USP7 levels (in words) (HiBiT-USP7): lower potency

Cc1ncsc1-c1ccc(CNC(=O)[C@@H]2C[C@@H](O)CN2C(=O)[C@@H](NC(=O)C23C4C5C2C2C3C4C52C(=O)N2CCC(C3CCN(c4ccc(-n5ncc6c(=O)n(CC7(O)CCN(C(=O)C[C@@H](C)c8ccccc8)CC7)cnc65)cc4)CC3)CC2)C(C)(C)C)cc1 (stereo partly shown) [NK233]
USP7 degradation (in words) (USP7 [4]): robust degradation of USP7 | USP7 degradation (in words) (USP7 [5]): effectively degraded USP7 | Ternary complex induction (in words) [6]: did not increase the BRET signal to the same level | HiBiT-USP7 levels (in words) (HiBiT-USP7): lower potency

Cc1ncsc1-c1ccc([C@H](C)NC(=O)[C@@H]2C[C@@H](O)CN2C(=O)[C@@H](NC(=O)C2(F)CC2)C(C)(C)C)cc1 [NK249]
Rescue of PROTAC-mediated USP7 degradation (in words) (USP7 [3]): rescued PROTAC-mediated degradation of USP7

CC(CC(=O)N1CCC(O)(Cn2cnc3c(cnn3-c3ccc(N4CCN(C(=O)CCOCCOCCOCCNC(=O)CCCCC5SCC6NC(=O)NC65)CC4)cc3)c2=O)CC1)c1ccccc1 (stereo not shown) [NK264]
IC50 [2]: 15 nM

CC(=O)c1cc([N+](=O)[O-])c(Sc2cccc(Cl)c2Cl)s1 [P5091]
IC50 [2]: 2070 nM

Cc1ncsc1-c1ccc(CNC(=O)[C@@H]2C[C@@H](O)CN2C(=O)[C@@H](NC(=O)C2(C#N)CC2)C(C)(C)C)cc1 [VH298, reference compound]
Ternary complex induction (in words) [6]: neither the negative control NK245 nor the VHL ligand VH298 induced a ternary complex

CN1CCN(CCC(=O)Nc2ccc3c(=O)n(CC4(O)CCN(C(=O)[C@@H](CCCNC(=O)c5ccc6c(Cl)c7c(nc6c5)CCCC7)Cc5ccccc5)CC4)cnc3c2)CC1 [XL177A]
IC50 [2]: 91 nM

CC(C)C[C@H](NC(=O)[C@H](CCc1ccccc1)NC(=O)CN1CCOCC1)C(=O)N[C@@H](Cc1ccccc1)C(=O)N[C@@H](CC(C)C)C(=O)[C@@]1(C)CO1 [carfilzomib, Carfilzomib]
Rescue of PROTAC-mediated USP7 degradation (in words) (USP7 [3]): rescued PROTAC-mediated degradation of USP7
